Laboratory results reported in ChEMBL document CHEMBL3507680, “University of Dundee, Gates Library screen for HepG2 cell viability”.

Assay: Human HepG2 cell viability assay in 384 well format
Type: toxicity, cell-based
Design: dose 125 nL, time 70.5 hour; concentration not given beside the values
Conditions: HepG2 cells, read-out: Inhibition

NC(=O)c1cccc2nc([C@H]3CCN(Cc4ccccn4)C3)[nH]c12
cytotoxicity at 70.5 h: -0.598%

FC(F)(F)c1ccc2nc([C@H]3CCN(C4CCC4)C3)[nH]c2c1
cytotoxicity at 70.5 h: -7.81%

O=C(NC[C@H]1OC[C@@H](NCc2ccc(F)cc2)[C@@H]1O)N1CCOCC1
cytotoxicity at 70.5 h: -8.58%

CC(=O)N1CCC(NC[C@H]2Cn3c(-c4ccccc4)cnc3CO2)CC1
cytotoxicity at 70.5 h: -5.76%

COC(=O)[C@@H]1Cc2ncn(C)c2CN1S(=O)(=O)Cc1ccccc1
cytotoxicity at 70.5 h: -2.85%

O=C1CO[C@H](c2ccc(NS(=O)(=O)c3ccccc3)cc2)[C@@H](CO)N1
cytotoxicity at 70.5 h: 11.6%

CCCNC(=O)C[C@@H]1CCN(C(=O)c2cccnc2)C[C@@H]1CC
cytotoxicity at 70.5 h: 12.5%

COCC(=O)N1CCN(C(=O)C2CCCCC2)[C@@H](C(=O)OC)C1
cytotoxicity at 70.5 h: 1.64%

COCCNC(=O)[C@H]1CN2CCC1C[C@@H]2Cn1cc(C(C)(C)C)nn1 (some centres not stated)
cytotoxicity at 70.5 h: -0.883%

CNCc1cn(C[C@H]2C[C@@H]3CCN2C[C@@H]3C(=O)NC2CCCCC2)nn1
cytotoxicity at 70.5 h: -5.79%

COCc1cn(C[C@H]2C[C@@H]3CCN2C[C@@H]3C(=O)N2CCOCC2)nn1
cytotoxicity at 70.5 h: -3.96%

CNCc1cn(C[C@H]2CC3CCN2C[C@@H]3C(=O)Nc2ccccc2)nn1 (some centres not stated)
cytotoxicity at 70.5 h: -9.94%

CC[C@H]1CN2CC[C@H]1C[C@@H]2CNC(=O)Nc1ccc(Br)cc1
cytotoxicity at 70.5 h: -0.477%

CC[C@H]1CN2CC[C@H]1C[C@@H]2CNC(=O)Nc1cc(OC)cc(OC)c1
cytotoxicity at 70.5 h: 0.42%

CC[C@H]1CN2CC[C@H]1C[C@@H]2CNC(=O)Nc1ccccc1
cytotoxicity at 70.5 h: -2.2%

CC(C)(C)CC(=O)N1CC[C@H]2NC(=O)N(Cc3ccccc3)C(=O)[C@H]21
cytotoxicity at 70.5 h: -4.69%

O=C(NC[C@H]1C[C@@H]2CCN1C[C@@H]2CN1CCOCC1)Nc1ccsc1
cytotoxicity at 70.5 h: -12.4%

CC(=O)NC[C@H]1C[C@@H]2CCN1C[C@@H]2c1cc(-c2cccs2)nn1C
cytotoxicity at 70.5 h: -10.2%

CCNC(=O)NC[C@H]1C[C@@H]2CCN1C[C@@H]2c1cc(-c2cccs2)nn1C
cytotoxicity at 70.5 h: -3.63%

Cn1nc(-c2ccccc2)cc1[C@H]1CN2CC[C@H]1C[C@@H]2CNS(C)(=O)=O
cytotoxicity at 70.5 h: -6.73%

CC1CCN(C[C@H]2CN3CC[C@H]2C[C@@H]3CNC(=O)Nc2ccsc2)CC1
cytotoxicity at 70.5 h: 10.5%

CC1CCN(C[C@H]2CN3CC[C@H]2C[C@@H]3CNC(=O)c2ccco2)CC1
cytotoxicity at 70.5 h: 19.1%

O=S(=O)(NC[C@H]1C[C@@H]2CCN1C[C@@H]2CN1CCOCC1)c1ccccc1
cytotoxicity at 70.5 h: -0.151%

COc1ccccc1CN1CCC2(CCC(C(=O)N(C)C)O2)CC1 (configuration not stated)
cytotoxicity at 70.5 h: -8.03%

CN(C)C(=O)CN1CCC2(CCN(S(=O)(=O)C3CC3)CC2)C1=O
cytotoxicity at 70.5 h: -11.2%

c1cc(CN2CCC3(CC2)COC(COCC2CC2)C3)cs1 (configuration not stated)
cytotoxicity at 70.5 h: -6.27%

Cc1cccc(CN2CCC3(CCC(C(=O)N(C)C)O3)CC2)n1 (configuration not stated)
cytotoxicity at 70.5 h: -9.32%

O=C1CC[C@]2(CC[C@@H](NC(=O)NCc3ccccc3)CC2)N1
cytotoxicity at 70.5 h: 15.6%

CC(=O)N1CCC2(CCCN(S(=O)(=O)c3ccccc3)C2)C1 (configuration not stated)
cytotoxicity at 70.5 h: 20%

Cc1cc(C(=O)N2CC[C@@H]3CN(CCC(C)C)S(=O)(=O)[C@@H]3CC2)no1
cytotoxicity at 70.5 h: -2.89%

C[C@H]1C[C@H]2CN(S(=O)(=O)c3ccc(F)cc3)CC[C@@H]2O1
cytotoxicity at 70.5 h: -3.04%

CCCS(=O)(=O)N1C[C@H]2C[C@H](C(=O)N3CCCC3)[C@@H](C1)O2
cytotoxicity at 70.5 h: -3.05%

CC(=O)N1CCC2(C1)CN(S(=O)(=O)c1ccccc1)C2
cytotoxicity at 70.5 h: -7.01%

O=C(Cc1ccc(F)cc1)N1C[C@H]2CCN[C@H]2C1
cytotoxicity at 70.5 h: -5%

C[C@H]1C[C@H]2CN(S(=O)(=O)c3ccc(F)cc3)CC[C@H]2O1
cytotoxicity at 70.5 h: 13.7%

N#Cc1ccc(C(=O)N2CCC3(CC2)CC3)cc1
cytotoxicity at 70.5 h: 4.59%

COCCN1C(=O)CCC12CCCN(C(=O)NC(C)C)CC2 (configuration not stated)
cytotoxicity at 70.5 h: 7.1%

Cn1cccc1C(=O)N1CCC2(CC1)CN(S(C)(=O)=O)c1ccccc12
cytotoxicity at 70.5 h: 3.63%

Cc1cc(C(=O)N2CC[C@@H](O)[C@@H]2Cc2ccccc2)no1
cytotoxicity at 70.5 h: -11.3%

CN1CCN(C(=O)c2n[nH]c3c2CN(C2CCOC2)CC3)CC1 (configuration not stated)
cytotoxicity at 70.5 h: -10.2%

Cc1cccc(N2CC3(CCN(S(=O)(=O)c4cccs4)C3)CC2=O)c1 (configuration not stated)
cytotoxicity at 70.5 h: -2.22%

CC[C@@H]1N(CC2CCC2)CCC[C@]12CCC(=O)N2Cc1ccncc1
cytotoxicity at 70.5 h: -4.74%

COc1ccc(C[C@H]2CN(C(=O)c3ncccn3)CC[C@@H]2OC)cc1
cytotoxicity at 70.5 h: -6.01%

O=C(C1CCOCC1)N1CCC2(CCNCC2)C1
cytotoxicity at 70.5 h: -11.8%

CC(C)CN1CCC2(CCCNC2)C1=O (configuration not stated)
cytotoxicity at 70.5 h: -10.9%

O=C1CC2(CCNCC2)C(=O)N1c1cccc(F)c1
cytotoxicity at 70.5 h: -0.489%

COc1cccc(N2C(=O)CC3(CCCNC3)C2=O)c1 (configuration not stated)
cytotoxicity at 70.5 h: -5.35%

COc1cccc(N2C(=O)CC3(CCNCC3)C2=O)c1
cytotoxicity at 70.5 h: -4.17%

CC(=O)N1CCCCC12CCCN(Cc1ccco1)C2 (configuration not stated)
cytotoxicity at 70.5 h: -14.9%

CC(C)C(=O)N1CC[C@H]2N(C)CC[C@@]2(C(=O)N2CCOCC2)CC1
cytotoxicity at 70.5 h: 2.86%

O=C(N1CCCC1)N1CC[C@H]2[C@H]1CCN2c1ncccn1
cytotoxicity at 70.5 h: -3.91%

CN1C(=O)CC(c2ccccc2)C12CCN(CC1CC1)CC2 (configuration not stated)
cytotoxicity at 70.5 h: -11.2%

CCCS(=O)(=O)N1C[C@H]2C[C@H](C(=O)N3CCN(C)CC3)[C@@H](C1)O2
cytotoxicity at 70.5 h: 4.46%

O=C1CC2(CCN(CC3CCOC3)CC2)c2ccccc2N1CC1CC1 (configuration not stated)
cytotoxicity at 70.5 h: -1.14%

O=C1Nc2ccccc2C12CCN(Cc1cccs1)CC2
cytotoxicity at 70.5 h: -2.74%

Cc1ccc(CN2CCC3(CC2)CCN(C(=O)c2cccn2C)C3)cc1
cytotoxicity at 70.5 h: -3.29%

CCN1C(=O)CC[C@]12CC[C@@H](NC(=O)c1ccncc1F)CC2
cytotoxicity at 70.5 h: -6.51%

O=C1CC[C@H]2[C@@H](CCN2Cc2ccco2)N1
cytotoxicity at 70.5 h: -8.59%

CO[C@H]1CCN(C(=O)Cc2ccsc2)[C@@H]2CN(CC3CC3)C[C@H]12
cytotoxicity at 70.5 h: -4.21%

CN1C(=O)CC(c2ccccc2)C12CCN(CCO)CC2 (configuration not stated)
cytotoxicity at 70.5 h: 2.6%

O=C(C1CC1)N1CCC2(CCCN2Cc2ccc(F)cc2)CC1
cytotoxicity at 70.5 h: 5.51%

CC(C)NC(=O)N1CCC2(CCC(=O)N2CCN(C)C)CC1
cytotoxicity at 70.5 h: -8.1%

O=C1[C@H]2CN(C(=O)[C@H]3CCCO3)C[C@H]2CN1CCN1CCCC1
cytotoxicity at 70.5 h: -9.56%

O=C1CC[C@]2(CC[C@@H](NCc3ccsc3)CC2)N1Cc1ccccc1
cytotoxicity at 70.5 h: -3.82%

CCN1CCC2(CCN(Cc3ccc(OC)cc3)CC2)C1=O
cytotoxicity at 70.5 h: -3.84%

CNC(=O)CN1CCCC12CCN(C(=O)c1ccccc1F)CC2
cytotoxicity at 70.5 h: -10.4%

Cc1cccnc1N1CC2(CCN(Cc3cnn(C)c3)C2)C1
cytotoxicity at 70.5 h: -10.7%

CN(C)C[C@H]1C[C@@H]2CN(Cc3ccoc3)C[C@@H]2O1
cytotoxicity at 70.5 h: -12.5%

COCCN1CCC2(CC1)CC(NC(=O)CN(C)C)c1ccccc1O2 (configuration not stated)
cytotoxicity at 70.5 h: -6.88%

O=C(c1n[nH]c2c1CN(C1CCOC1)CC2)N1CCCC1 (configuration not stated)
cytotoxicity at 70.5 h: -1.72%

CC[C@@H]1N(C)CCC[C@]12CCC(=O)N2Cc1ccncc1
cytotoxicity at 70.5 h: 0.423%

CN1CCN(C(=O)c2n[nH]c3c2CN(C2CCOCC2)CC3)CC1
cytotoxicity at 70.5 h: -10.2%
